Experimental data published in patent publication US11058772B2, “(Bacterio)chlorophyll photosensitizers for treatment of eye diseases and disorders” (Yeda Research and Development Co. Ltd., priority 2011, dated 2021).

Assays:
[1] = tested on: rabbit cornea keratocytes; assay: Staining for apoptosis (TUNEL assay); format: in vivo; conditions: one day postoperatively
Experimental: For apoptosis detection, rabbits were euthanized one day post Bchl-S or Bchl-D treatment. Their corneas were removed, fixated in 4% formaldehyde and embedded in paraffin. […] central sections were prepared from the corneas, placed on microscope slides and deparaffinized. Peroxidase-based terminal deoxyribonucleotidyl transferase-mediated dUTP-digoxigenin nick and labeling (TUNEL) assay was performed according to the manufacturer's instructions (Apop-Tag assay, Chemicon, Merck Millipore, Darmstadt, Germany).

[2] = tested on: de-epithelialized rabbit cornea; assay: Depth of penetration into the rabbit cornea, ex vivo (fluorescence microscopy of sagittal slices); format: in vitro ADME
Experimental: Eyes of rabbits were enucleated and deepithelialised mechanically post mortem. The eyes were exposed to Bchl-S solution using an eye cap for 5, 10, and 30 minutes and to Bchl-D solution for 10 and 30 min, in darkness. Controls: untreated eyes, and one eye treated with dextran-500 only for 30 min in darkness. Following this pretreatment, the corneas were briefly rinsed with saline and the central 8-mm buttons were trephined, removed, wrapped in aluminum foil and frozen on dry ice until further use. Central serial corneal sagittal slices (12 μm) were cut with a cryomicrotome, mounted on a microscope glass slide and stored frozen in −70° C. until use. For measurement of fluorescence, the individual slices were placed on the microscope base and a photographic record was immediately taken. Fluorescence intensity of Bchl-S or Bchl-D treated corneas from 3 serial cryo sections was recorded at 760 nm, upon excitation at 740 nm, using a fluorescence microscope (BX61 Olympus, Japan) equipped with CCD camera (Cascade 512B, Roper Sci., USA) and a long pass filter of above 760 nm. The digital data was analyzed, using ImageJ software (NIH, USA).
The penetration depth of the photosensitizer determines the extent of cornea's tissue exposure to the photodynamic effect. In particular, the deeper the penetration, the higher is the probability for endothelial impairment. To resolve the penetration depth of test compounds following different times of incubation, the digitized fluorescence of dissected corneal discs was monitored using fluorescence microscopy as described in Materials and Methods.
The penetration depth of WST11 into the de-epithelialized cornea, following various incubation times, was performed in the darkness in the absence or presence of dextran, using saline or dextran solutions of WST11 (WST11-S or WST11-D solutions, respectively) in 20 eyes of euthanized rabbits. Sagittal frozen sections mounted on glass slides were subjected to fluorescence microscopy. The distribution of WST11 across the cornea was recorded photographically by fluorescence microscopy (excitation/emission 740/760 nm). The controls were 4 untreated eyes and 1 eye treated only with dextran-T 500 for 30 minutes.

CCC1C2=Cc3c(C)c(C(=O)NCCS(=O)(=O)[O-])c4[n]3[Pd][n]3c(c(C)c(C(C)=O)c3=CC(=N2)C1C)=CC1=NC(=C4CC(=O)OC)C(CCC(=O)[O-])C1C.[K+].[K+] (centres unmarked) [WST11, Palladium 3^1-oxo-15-methoxycarbonylmethyl-rhodobacteriochlorin 13^1-(2-sulfoethyl)amide dipotassium salt]
location of TUNEL-positive keratocytes [1]: outer ½ of anterior stroma
stromal thickness after exposure ([2]; 30 min exposure to saline solution, from 360-380 μm): 600-730 μm
penetration depth into corneal stroma ([2]; in saline, no dextran, 10 min exposure, dipotassium salt): half of the corneal stroma
penetration depth into corneal stroma ([2]; in saline, no dextran, 10 min exposure, listed as WST11-S, dipotassium salt): entire outer half of the stroma
penetration depth into corneal stroma ([2]; in saline, no dextran, 30 min exposure, dipotassium salt): entire stroma depth
penetration depth into corneal stroma ([2]; in saline, no dextran, 30 min exposure, listed as WST11-S, dipotassium salt): all the way to Descemet's membrane
penetration depth into corneal stroma ([2]; with dextran-500, 10 min incubation): outer ⅓ of the corneal stroma
penetration depth into corneal stroma ([2]; with dextran-500, 30 min incubation): 50%
